Test results taken from patent US20200247897A1, “THERAPEUTIC ANTIBODIES BASED ON MUTATED IGG HEXAMERS” (GENMAB B.V., priority 2017, published 2020).

Tested on: BxPC-3 pancreatic cancer cells
Test: 3-days CellTiter-Glo viability assay, BxPC-3
Conditions: Z-VAD-FMK 5 μM

TRAIL: natural DR5 ligand, recombinant human TRAIL/APO-2L
viability of BxPC-3 cells in presence of pan-caspase inhibitor Z-VAD-FMK: inhibited in the presence of pan-caspase inhibitor Z-VAD-FMK
